Series [1] has as its target T1, human calcitonin receptor (hCTR2) (Homo sapiens, UniProt P30988).
T1 construct: expressed in transfected cells
T1 sequence (P30988 25-474): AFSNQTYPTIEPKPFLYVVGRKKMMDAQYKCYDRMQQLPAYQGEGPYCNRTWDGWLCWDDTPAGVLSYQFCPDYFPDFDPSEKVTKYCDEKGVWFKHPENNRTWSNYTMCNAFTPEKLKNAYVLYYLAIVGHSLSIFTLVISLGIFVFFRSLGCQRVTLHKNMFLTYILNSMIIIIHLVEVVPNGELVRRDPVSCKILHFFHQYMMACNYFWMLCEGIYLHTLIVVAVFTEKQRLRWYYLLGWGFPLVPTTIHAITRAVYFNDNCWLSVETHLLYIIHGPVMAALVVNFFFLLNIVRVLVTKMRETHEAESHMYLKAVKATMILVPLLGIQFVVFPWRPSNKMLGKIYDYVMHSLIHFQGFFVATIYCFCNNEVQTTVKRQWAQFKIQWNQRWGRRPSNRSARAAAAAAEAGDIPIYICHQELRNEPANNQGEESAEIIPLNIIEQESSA
As to the kind of experiment: hCTR2 assay: induction of cAMP (AlphaScreen cAMP Assay kit) in COS7 cells expressing hCTR2. The format is cell-based. The method in brief:
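Functional agonism is measured as cAMP accumulation in a COS7 line stably transfected with hCTR2, lacking endogenous RAMPs. Peptides act for 15 min at 37° C with IBMX present, and curves are fitted with a 4-parameter logistic model.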
(Bead proximity is the source of the signal in Alpha formats.)

The nature of series [2]: Solubility assessment (turbidity absorbance at 325 nm). The format is physicochemical. As to conditions: stock 2 mg/ml diluted 1:1, ambient temperature (typically 25°C), n=1; for Solubility, Acetate buffer pH 4: 100 mM acetate buffer pH 4.0; for Solubility, Acetate buffer pH 5: 100 mM acetate buffer pH 5.0; for Solubility, Histidine buffer pH 6: 100 mM histidine buffer pH 6.0; for Solubility, Histidine buffer pH 7: 100 mM histidine buffer pH 7.0; for Solubility, Phosphate buffer pH 6: 100 mM phosphate buffer pH 6.0; for Solubility, Phosphate buffer pH 7: 100 mM phosphate buffer pH 7.0; for Solubility, Phosphate buffer pH 7.5: 100 mM phosphate buffer pH7.5. The method in brief:
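Peptide stock (2 mg/ml, water pH 2.5) diluted 1:1 into 100 mM acetate (pH 4.0, 5.0), histidine (pH 6.0, 7.0) or phosphate (pH 6.0–7.5) buffer; absorbance at 325 nm read at about 25°C, n=1. A325 ≤ 0.02 taken as solubility ≥ 1 mg/ml.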

Read-outs that look alike come from different tables or passages of the source. Numbered stars: 1 amine (or outer) side, 2 acyl side, 3 side chain; on linkers, the order of the positions; unused ones are H or OH. Bridge positions count the residues as written; N and C are the ends. Square brackets hold non-standard residues; d marks the D form. Peptide text beside a SMILES is read from it. * marks the point of attachment. C20 diacid = O=C(O)CCCCCCCCCCCCCCCCCCC(=O)*; γGlu = O=C(O)[C@H](CCC(=O)[*:2])N[*:1]; NMeI = CC[C@H](C)[C@H](NC)C(=O)O; Sar = CNCC(=O)O

Turning to `CC[C@H](C)[C@@H](C(=O)N[C@@H](CC(C)C)C(=O)N[C@@H](CO)C(=O)N[C@@H](CO)C(=O)N[C@H](C(=O)N[C@@H](CC(N)=O)C(=O)N[C@H](C(=O)NCC(=O)N[C@@H](CO)C(=O)N[C@@H](CC(N)=O)C(=O)N[C@H](C(=O)N1CCC[C@H]1C(N)=O)[C@@H](C)O)C(C)C)[C@@H](C)O)N(C)C(=O)[C@H](C)NC(=O)CN(C)C(=O)[C@@H](Cc1ccccc1)NC(=O)[C@H](CC(N)=O)NC(=O)[C@H](CC(N)=O)NC(=O)[C@H](CO)NC(=O)[C@H](CO)NC(=O)[C@H](CCCNC(=N)N)NC(=O)[C@H](Cc1c[nH]cn1)NC(=O)[C@H](CC(C)C)NC(=O)[C@H](Cc1ccccc1)NC(=O)[C@H](CCC(=O)O)NC(=O)[C@H](C)NC(=O)[C@H](CC(C)C)NC(=O)[C@H](CCCNC(=N)N)NC(=O)[C@H](CCC(N)=O)NC(=O)[C@@H](NC(=O)[C@H](C)NC(=O)[C@@H]1CSSC[C@H](NC(=O)[C@H](CCCCN)NC(=O)CC[C@H](NC(=O)CCCCCCCCCCCCCCCCCCC(=O)O)C(=O)O)C(=O)N[C@@H](CC(N)=O)C(=O)N[C@@H]([C@@H](C)O)C(=O)N[C@@H](C)C(=O)N[C@@H]([C@@H](C)O)C(=O)N1)[C@@H](C)O` [Compound 71, [19CD]-isoGlu-KC()NTATC()ATQRLAEFLHRSSNN-DPhe-Gly(Me)-A-Ile(Me)-LSSTNVGSNTP-NH2] ({C20 diacid-γGlu}-KCNTATCATQRLAEFLHRSSNN[dF][Sar]A[NMeI]LSSTNVGSNTP-NH2; disulfide 2-7), the EC50 (as a rule, the concentration that produces a half-maximal response) in series [1] is 0.068 nM. Moreover, in series [2], the “Solubility, Acetate buffer pH 4” value is given as “SS (SS indicates solubility ≥ 1mg/ml)”; the “Solubility, Acetate buffer pH 5” value was “SS (SS indicates solubility ≥ 1mg/ml)”; the “Solubility, Histidine buffer pH 6” value is “SS (SS indicates solubility ≥ 1mg/ml)”; the “Solubility, Histidine buffer pH 7” value is listed as “SS (SS indicates solubility ≥ 1mg/ml)”. In series [2], the “Solubility, Phosphate buffer pH 6” value was “SS (SS indicates solubility ≥ 1mg/ml)”; the “Solubility, Phosphate buffer pH 7” value is “SS (SS indicates solubility ≥ 1mg/ml)”; the “Solubility, Phosphate buffer pH 7.5” value was “SS (SS indicates solubility ≥ 1mg/ml)”.

As for `CC[C@H](C)[C@@H](C(=O)N[C@@H](CC(C)C)C(=O)N[C@@H](CO)C(=O)N[C@@H](CO)C(=O)N[C@H](C(=O)N[C@@H](CC(=O)O)C(=O)N[C@H](C(=O)NCC(=O)N[C@@H](CO)C(=O)N[C@@H](CCC(=O)O)C(=O)N[C@H](C(=O)N1CCC[C@H]1C(N)=O)[C@@H](C)O)C(C)C)[C@@H](C)O)N(C)C(=O)[C@H](C)NC(=O)CN(C)C(=O)[C@H](Cc1ccccc1)NC(=O)[C@H](CO)NC(=O)[C@H](CO)NC(=O)[C@H](CO)NC(=O)[C@H](CO)NC(=O)[C@H](CCCNC(=N)N)NC(=O)[C@H](Cc1c[nH]cn1)NC(=O)[C@H](CC(C)C)NC(=O)[C@H](Cc1ccccc1)NC(=O)[C@H](CCC(=O)O)NC(=O)[C@H](C)NC(=O)[C@H](CC(C)C)NC(=O)[C@H](CCCNC(=N)N)NC(=O)[C@H](CCC(N)=O)NC(=O)[C@@H](NC(=O)[C@H](C)NC(=O)[C@@H]1CSSC[C@H](NC(=O)[C@H](CCCNC(=N)N)NC(=O)CC[C@H](NC(=O)CCCCCCCCCCCCCCCCCCC(=O)O)C(=O)O)C(=O)N[C@@H](CC(N)=O)C(=O)N[C@@H]([C@@H](C)O)C(=O)N[C@@H](C)C(=O)N[C@@H]([C@@H](C)O)C(=O)N1)[C@@H](C)O` [Compound 74, [19CD]-isoGlu-RC()NTATC()ATQRLAEFLHRSSSSF-Gly(Me)-A-Ile(Me)-LSSTDVGSETP-NH2] ({C20 diacid-γGlu}-RCNTATCATQRLAEFLHRSSSSF[Sar]A[NMeI]LSSTDVGSETP-NH2; disulfide 2-7), in series [1] (cAMP induction in COS7 cells expressing hCTR2, average of a minimum of 3 determinations, read-out: hCTR2 EC50), the EC50 is 0.097 nM. Besides, in series [2], the “Solubility, Acetate buffer pH 4” value is reported as “SS (SS indicates solubility ≥ 1mg/ml)”; the “Solubility, Acetate buffer pH 5” value is “SS (SS indicates solubility ≥ 1mg/ml)”; the “Solubility, Histidine buffer pH 6” value is “SS (SS indicates solubility ≥ 1mg/ml)”; the “Solubility, Histidine buffer pH 7” value is listed as “SS (SS indicates solubility ≥ 1mg/ml)”. In series [2], the “Solubility, Phosphate buffer pH 6” value is “SS (SS indicates solubility ≥ 1mg/ml)”; the “Solubility, Phosphate buffer pH 7” value is reported as “SS (SS indicates solubility ≥ 1mg/ml)”; the “Solubility, Phosphate buffer pH 7.5” value is “SS (SS indicates solubility ≥ 1mg/ml)”.

For the origin of these results see patent EP3046573B1, “AMYLIN ANALOGUES” (Zealand Pharma A/S, priority 2013, dated 2015).
